According to ChEMBL document CHEMBL1125504, “2-Substituted 1-azabicycloalkanes, a new class of non-opiate antinociceptive agents” (J Med Chem, 1992):
Activity calls are given as the source filed them. The calls are words filed in the database; no cut-off is given here.

What was measured:
Mus musculus [1] = species on record: Mus musculus; assay: Antinociceptive activity using mouse abdominal constriction test; inactive; format: functional, organism-based; conditions: Abdomen
Mus musculus [2] = assay: Antinociceptive activity (100 mg/Kg) was determined using mouse tail flick test.; format: functional
Mus musculus [3] = assay: Antinociceptive activity (10 mg/Kg) was determined using mouse abdominal constriction test.; format: functional, Abdomen
Mus musculus [4] = assay: Antinociceptive activity (50 mg/Kg) was determined using mouse tail flick test.; format: functional
Mus musculus [5] = species on record: Mus musculus; assay: Antinociceptive activity in mice, determined using abdominal constriction test.; format: functional; conditions: Abdomen
Mus musculus [6] = species on record: Mus musculus; assay: Antinociceptive activity using mouse tail flick test; Inactive; format: functional, organism-based
Mus musculus [7] = assay: Antinociceptive activity in mice following i.p. treatment, determined using tail flick test.; format: functional; conditions: ip
[8] = target: T1, Adrenergic receptor alpha-2 (Rattus norvegicus, UniProt P22086+P19328+P22909); assay: Inhibitory constant was measured on alpha-2 adrenergic receptor /uptake using [3H] clonidine as radioligand in rat brain cortex; format: tissue-based
T1 sequence (P22086 whole entry): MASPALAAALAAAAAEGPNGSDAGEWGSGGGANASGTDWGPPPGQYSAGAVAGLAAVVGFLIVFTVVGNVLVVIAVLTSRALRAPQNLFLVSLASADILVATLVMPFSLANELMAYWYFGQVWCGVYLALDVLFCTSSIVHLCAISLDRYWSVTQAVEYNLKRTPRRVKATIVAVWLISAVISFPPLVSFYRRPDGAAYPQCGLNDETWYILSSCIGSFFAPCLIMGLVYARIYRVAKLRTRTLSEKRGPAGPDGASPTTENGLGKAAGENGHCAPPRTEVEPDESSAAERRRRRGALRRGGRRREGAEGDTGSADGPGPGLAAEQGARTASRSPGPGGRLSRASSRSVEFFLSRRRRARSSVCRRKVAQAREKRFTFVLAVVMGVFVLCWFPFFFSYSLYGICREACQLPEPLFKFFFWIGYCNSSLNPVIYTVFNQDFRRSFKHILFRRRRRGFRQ
T1 sequence (P19328 whole entry): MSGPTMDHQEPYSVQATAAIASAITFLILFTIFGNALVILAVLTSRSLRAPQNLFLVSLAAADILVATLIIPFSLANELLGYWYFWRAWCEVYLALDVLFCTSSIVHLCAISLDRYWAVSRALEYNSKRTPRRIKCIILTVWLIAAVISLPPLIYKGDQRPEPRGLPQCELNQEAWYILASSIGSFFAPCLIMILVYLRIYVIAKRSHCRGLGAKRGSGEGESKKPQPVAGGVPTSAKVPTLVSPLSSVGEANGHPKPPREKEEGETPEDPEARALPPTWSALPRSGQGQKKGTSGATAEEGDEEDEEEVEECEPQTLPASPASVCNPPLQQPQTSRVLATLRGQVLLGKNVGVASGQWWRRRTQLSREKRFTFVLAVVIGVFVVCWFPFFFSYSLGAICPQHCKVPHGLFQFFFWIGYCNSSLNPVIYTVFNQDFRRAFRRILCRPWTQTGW
T1 sequence (P22909 whole entry): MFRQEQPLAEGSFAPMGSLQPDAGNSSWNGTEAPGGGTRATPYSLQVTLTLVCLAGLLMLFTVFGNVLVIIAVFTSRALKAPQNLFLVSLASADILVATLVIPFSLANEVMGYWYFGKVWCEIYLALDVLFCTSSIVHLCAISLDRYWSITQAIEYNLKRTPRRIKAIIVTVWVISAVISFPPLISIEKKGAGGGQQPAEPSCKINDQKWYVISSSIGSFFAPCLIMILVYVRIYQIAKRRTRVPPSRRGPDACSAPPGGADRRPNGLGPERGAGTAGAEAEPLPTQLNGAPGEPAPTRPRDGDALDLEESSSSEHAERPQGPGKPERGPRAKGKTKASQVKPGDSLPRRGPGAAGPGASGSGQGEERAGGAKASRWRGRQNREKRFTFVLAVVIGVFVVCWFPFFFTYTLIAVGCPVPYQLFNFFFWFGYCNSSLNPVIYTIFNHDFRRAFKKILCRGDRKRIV

[9] = target: Cannabinoid receptor (Rattus norvegicus) (UniProt Q9QZN9+P20272); assay: Inhibitory constant (10 uM) was measured on cannabinoid receptor/uptake using [3H]CP-55940 as radioligand in rat brain cortex.; format: tissue-based
[10] = target: Serotonin 1 (5-HT1) receptor (Rattus norvegicus) (UniProt P28564+P30940+P19327+P28565); assay: Inhibition constant (1 uM) was measured on 5-hydroxytryptamine 1 receptor/uptake using [3H]- serotonin as radioligand in rat brain cortex.; format: tissue-based
[11] = target: Serotonin 2 (5-HT2) receptor (Rattus norvegicus) (UniProt P30994+P08909+P14842); assay: Inhibitory constant (1 uM) was measured on 5-hydroxytryptamine 2 receptor/uptake using [3H]- ketanserin as radioligand in rat brain cortex.; format: tissue-based
[12] = target: Adrenergic receptor alpha-1 (Rattus norvegicus) (UniProt P15823+P23944+P43140); assay: Inhibitory constant (1 uM) was measured on alpha-1 adrenergic receptor/uptake using [3H]- WB-4101 as radioligand in rat brain cortex.; format: tissue-based
[13] = target: Opioid receptor (Rattus norvegicus) (UniProt P33533+P34975+P33535); assay: Inhibitory constant (10 uM) was measured on opioid receptor/uptake using [3H]- naloxone as radioligand in rat whole brain.
[14] = target: Adrenergic receptor beta (Rattus norvegicus) (UniProt P18090+P10608+P26255); assay: Inhibitory constant (1 uM) was measured on beta adrenergic receptor/uptake using [3H]- dihydroalprenolol as radioligand in rat brain cortex.; format: tissue-based
[15] = target: GABA-A receptor; anion channel (Rattus norvegicus) (UniProt O09028+P15431+P18506+P18508+P19969+P20236+P23574+P23576+P28471+P28473+P30191+P62813+P63079+P63138+Q91ZM7+Q9ES14); assay: Inhibition of [3H]GABA binding to gamma-aminobutyric-acid A (GABA-A) receptor of rat brain cerebellum at 10 uM; format: tissue-based
[16] = target: D(2) dopamine receptor (Rattus norvegicus) (UniProt P61169); assay: Inhibitory constant (1 uM) was measured on dopamine receptor D2 using [3H]- spiperone as radioligand in rat brain striatum.; format: tissue-based
[17] = target: T1, Adrenergic receptor alpha-2; assay: Inhibitory constant was measured on alpha-2 adrenergic receptor /uptake using [3H]- clonidine as radioligand in rat brain cortex.; format: tissue-based

Cannabinoid receptor (Rattus norvegicus), sequence (P20272 whole entry, looked up): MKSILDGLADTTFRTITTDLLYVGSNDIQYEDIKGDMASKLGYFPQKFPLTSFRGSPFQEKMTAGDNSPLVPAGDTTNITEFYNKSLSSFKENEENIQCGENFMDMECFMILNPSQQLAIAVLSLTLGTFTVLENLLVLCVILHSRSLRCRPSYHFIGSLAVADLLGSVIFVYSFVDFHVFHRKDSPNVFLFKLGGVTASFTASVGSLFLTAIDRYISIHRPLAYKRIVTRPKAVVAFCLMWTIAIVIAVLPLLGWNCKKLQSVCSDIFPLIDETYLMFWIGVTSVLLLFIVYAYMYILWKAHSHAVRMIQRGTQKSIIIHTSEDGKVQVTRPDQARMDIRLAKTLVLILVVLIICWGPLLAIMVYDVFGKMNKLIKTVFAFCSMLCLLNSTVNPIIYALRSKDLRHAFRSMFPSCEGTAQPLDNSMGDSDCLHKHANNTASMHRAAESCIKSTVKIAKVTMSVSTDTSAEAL
Cannabinoid receptor (Rattus norvegicus), sequence (Q9QZN9 whole entry, looked up): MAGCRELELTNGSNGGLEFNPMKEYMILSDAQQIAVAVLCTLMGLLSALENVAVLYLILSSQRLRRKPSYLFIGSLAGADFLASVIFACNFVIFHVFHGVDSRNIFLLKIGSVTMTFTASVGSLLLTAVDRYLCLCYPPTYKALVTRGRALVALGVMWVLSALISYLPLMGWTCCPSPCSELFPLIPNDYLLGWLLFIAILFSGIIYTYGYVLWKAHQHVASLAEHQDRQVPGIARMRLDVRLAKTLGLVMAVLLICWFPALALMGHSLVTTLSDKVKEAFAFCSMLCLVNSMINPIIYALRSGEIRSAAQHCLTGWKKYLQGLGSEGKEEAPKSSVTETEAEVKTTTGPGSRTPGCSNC
Opioid receptor (Rattus norvegicus), sequence (P33533 whole entry, looked up): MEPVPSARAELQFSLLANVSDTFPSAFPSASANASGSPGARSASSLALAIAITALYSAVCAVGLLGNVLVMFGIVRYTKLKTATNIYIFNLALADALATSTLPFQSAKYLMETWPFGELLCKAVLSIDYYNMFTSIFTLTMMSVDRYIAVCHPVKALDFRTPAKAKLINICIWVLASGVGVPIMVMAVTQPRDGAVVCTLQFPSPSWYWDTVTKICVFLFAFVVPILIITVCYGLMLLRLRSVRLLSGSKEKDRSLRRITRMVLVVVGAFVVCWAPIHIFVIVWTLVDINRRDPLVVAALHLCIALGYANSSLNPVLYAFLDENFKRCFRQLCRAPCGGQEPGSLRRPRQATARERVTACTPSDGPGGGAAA
Opioid receptor (Rattus norvegicus), sequence (P33535 whole entry, looked up): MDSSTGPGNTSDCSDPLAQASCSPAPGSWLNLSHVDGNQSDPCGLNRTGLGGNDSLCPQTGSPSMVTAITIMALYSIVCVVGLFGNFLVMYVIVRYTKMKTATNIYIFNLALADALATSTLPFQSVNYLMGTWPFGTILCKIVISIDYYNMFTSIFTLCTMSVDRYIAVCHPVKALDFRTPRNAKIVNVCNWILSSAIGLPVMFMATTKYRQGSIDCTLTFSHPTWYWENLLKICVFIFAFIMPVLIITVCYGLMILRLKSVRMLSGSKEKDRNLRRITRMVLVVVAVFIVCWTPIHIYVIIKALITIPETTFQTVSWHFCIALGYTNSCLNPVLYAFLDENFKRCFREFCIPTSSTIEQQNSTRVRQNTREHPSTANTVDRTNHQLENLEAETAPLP
Opioid receptor (Rattus norvegicus), sequence (P34975 whole entry, looked up): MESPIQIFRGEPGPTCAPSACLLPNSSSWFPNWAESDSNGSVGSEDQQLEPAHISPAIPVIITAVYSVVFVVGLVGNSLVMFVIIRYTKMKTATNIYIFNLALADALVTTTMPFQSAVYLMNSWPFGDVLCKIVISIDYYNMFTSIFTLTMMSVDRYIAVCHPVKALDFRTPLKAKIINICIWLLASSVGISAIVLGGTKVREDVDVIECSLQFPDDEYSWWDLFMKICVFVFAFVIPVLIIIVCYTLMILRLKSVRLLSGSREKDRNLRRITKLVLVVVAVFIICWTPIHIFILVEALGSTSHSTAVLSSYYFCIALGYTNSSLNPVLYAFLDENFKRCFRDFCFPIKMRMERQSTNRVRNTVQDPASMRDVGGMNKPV
Serotonin 2 (5-HT2) receptor (Rattus norvegicus), sequence (P08909 whole entry, looked up): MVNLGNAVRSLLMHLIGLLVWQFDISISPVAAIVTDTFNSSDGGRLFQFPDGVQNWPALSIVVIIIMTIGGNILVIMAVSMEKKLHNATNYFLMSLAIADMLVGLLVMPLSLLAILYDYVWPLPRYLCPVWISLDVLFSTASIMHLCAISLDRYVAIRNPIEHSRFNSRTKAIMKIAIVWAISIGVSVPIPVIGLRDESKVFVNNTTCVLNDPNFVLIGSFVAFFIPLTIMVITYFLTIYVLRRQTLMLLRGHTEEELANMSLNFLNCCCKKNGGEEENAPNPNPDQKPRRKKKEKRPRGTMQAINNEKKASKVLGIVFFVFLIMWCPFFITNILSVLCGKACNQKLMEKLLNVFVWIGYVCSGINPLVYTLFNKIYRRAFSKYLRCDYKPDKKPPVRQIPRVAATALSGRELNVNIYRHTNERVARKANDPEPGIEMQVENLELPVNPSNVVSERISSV
Serotonin 2 (5-HT2) receptor (Rattus norvegicus), sequence (P14842 whole entry, looked up): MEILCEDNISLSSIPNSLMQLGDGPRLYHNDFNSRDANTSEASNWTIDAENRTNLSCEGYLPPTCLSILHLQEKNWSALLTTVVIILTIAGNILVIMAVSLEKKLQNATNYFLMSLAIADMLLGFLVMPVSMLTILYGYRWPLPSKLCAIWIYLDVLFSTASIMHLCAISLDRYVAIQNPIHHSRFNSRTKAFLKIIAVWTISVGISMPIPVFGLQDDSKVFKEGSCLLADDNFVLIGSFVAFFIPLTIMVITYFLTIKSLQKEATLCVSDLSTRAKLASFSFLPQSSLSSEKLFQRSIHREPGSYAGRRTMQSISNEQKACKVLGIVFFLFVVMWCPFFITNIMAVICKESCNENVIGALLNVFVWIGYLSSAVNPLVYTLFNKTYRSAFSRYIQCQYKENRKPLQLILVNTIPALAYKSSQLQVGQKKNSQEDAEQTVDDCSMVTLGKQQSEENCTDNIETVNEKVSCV
Serotonin 2 (5-HT2) receptor (Rattus norvegicus), sequence (P30994 whole entry, looked up): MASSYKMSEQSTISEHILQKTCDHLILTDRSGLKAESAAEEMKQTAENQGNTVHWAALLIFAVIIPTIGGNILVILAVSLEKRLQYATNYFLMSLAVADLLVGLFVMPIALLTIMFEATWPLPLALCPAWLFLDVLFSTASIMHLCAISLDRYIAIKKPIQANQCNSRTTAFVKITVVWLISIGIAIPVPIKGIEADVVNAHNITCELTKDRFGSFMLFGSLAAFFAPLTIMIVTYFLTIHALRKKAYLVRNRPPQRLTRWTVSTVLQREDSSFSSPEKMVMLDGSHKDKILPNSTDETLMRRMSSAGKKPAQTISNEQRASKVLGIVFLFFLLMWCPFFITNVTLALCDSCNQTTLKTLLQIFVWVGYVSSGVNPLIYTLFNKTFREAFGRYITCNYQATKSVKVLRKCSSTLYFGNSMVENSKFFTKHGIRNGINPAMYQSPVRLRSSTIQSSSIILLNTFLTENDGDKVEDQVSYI
D(2) dopamine receptor (Rattus norvegicus), sequence (P61169 whole entry): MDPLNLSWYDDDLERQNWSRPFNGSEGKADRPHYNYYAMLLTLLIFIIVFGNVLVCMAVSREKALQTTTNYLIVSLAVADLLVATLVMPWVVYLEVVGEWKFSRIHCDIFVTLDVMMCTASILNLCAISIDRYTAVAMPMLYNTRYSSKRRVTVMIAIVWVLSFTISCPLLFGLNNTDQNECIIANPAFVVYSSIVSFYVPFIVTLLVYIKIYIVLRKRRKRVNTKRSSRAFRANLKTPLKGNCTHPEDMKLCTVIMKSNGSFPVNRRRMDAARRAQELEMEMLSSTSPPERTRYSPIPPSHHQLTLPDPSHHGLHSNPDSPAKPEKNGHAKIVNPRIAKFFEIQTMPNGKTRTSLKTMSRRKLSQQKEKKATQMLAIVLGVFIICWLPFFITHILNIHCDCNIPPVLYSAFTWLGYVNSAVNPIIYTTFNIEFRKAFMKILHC

Brc1cccc([C@H]2CC[C@H]3CCCCN32)c1.Cl
ED50 (Mus musculus [1]): inactive
Response (Mus musculus [2]): 60%

C1CCC([C@H]2CC[C@H]3CCCCN32)CC1.Cl
Response (Mus musculus [3]): 50%
Response (Mus musculus [4]): 60%

Cl.c1ccc(COc2ccc([C@H]3CC[C@H]4CCCCN43)cc2)cc1
ED50 (Mus musculus [5]): 16.8 mg/kg
Response (Mus musculus [2]): 50%

Brc1ccc([C@H]2CC[C@H]3CCCCN32)cc1.Cl
ED50 (Mus musculus [5]): 18.8 mg/kg
ED50 (Mus musculus [6]): inactive

c1ccc(C2CCC3CCCN32)cc1 (stereo unspecified)
ED50 (Mus musculus [5]): 5.7 mg/kg
ED50 (Mus musculus [7]): > 25 mg/kg

Brc1ccccc1[C@H]1CC[C@H]2CCCCN21.Cl (racemic)
Ki [8]: 1120 nM

Brc1ccccc1[C@H]1CC[C@H]2CCCCN21 (racemic)
Response [9]: 1%
Response [10]: 7%
Response [11]: -18%
Response [12]: 6%
Response [13]: 17%
Response [14]: -3%
Response [15]: 2%
Response [16]: 0%

Brc1ccccc1[C@H]1CC[C@H]2CCCCN21.Cl (stereo in doubt; (+)2a)
Ki [17]: 1200 nM

Brc1ccccc1[C@H]1CC[C@H]2CCCCN21 (stereo in doubt; (+)2a)
Response [9]: 6%
Response [14]: -1%
Response [15]: 4%

Brc1ccccc1[C@H]1CC[C@H]2CCCCN21.Cl (stereo in doubt; (-)2a)
Ki [17]: 2840 nM

Brc1ccccc1[C@H]1CC[C@H]2CCCCN21 (stereo in doubt; (-)2a)
Response [9]: 2%
Response [14]: -5%
Response [15]: -2%

COc1ccc2c3c1O[C@H]1[C@@H](O)C=C[C@H]4[C@@H](C2)N(C)CC[C@@]341.COc1ccc2c3c1O[C@H]1[C@@H](O)C=C[C@H]4[C@@H](C2)N(C)CC[C@@]341.O.O=P(O)(O)O.O=P(O)(O)O [CODEINE PHOSPHATE]
ED50 (Mus musculus [5]): 11.1 mg/kg
ED50 (Mus musculus [7]): 30 mg/kg

CC(C)Cc1ccc(C(C)C(=O)O)cc1 (stereo unspecified) [IBUPROFEN]
ED50 (Mus musculus [5]): 15.7 mg/kg
ED50 (Mus musculus [6]): inactive
